Values quoted from earlier work, collected in patent publication US6479045B2, “Vaginal pH buffering for preventing miscarriage and premature labor, by treating or preventing bacterial vaginosis” (Columbia Laboratories, Inc., priority 1999, dated 2002).

System: Bacterial Vaginosis
Settings: within one month

In the case of `Cc1ncc([N+](=O)[O-])n1CCO` [metronidazole], the cure rate is listed as “approximately 70%”.
